From patent US20180201592A1, “2-AMINO-1,3,4-THIADIAZINE AND 2-AMINO-1,3,4-OXADIAZINE BASED ANTIFUNGAL AGENTS” (F2G Limited, priority 2015, published 2018)

How the values were obtained:
Settings in all cases: banded MIC grade
[1] = system: C. albicans; assay: Minimum inhibitory concentration, RPMI medium; format: cell-based
How it was run: (§1)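 Compound stock was made at 5 mg/mL in DMSO, diluted in sterile water and serially doubled in water, then tested in RPMI 1640 medium. Plates were incubated 24-48 hrs at 35° C, and growth was scored as optical density at 485 nm.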

[2] = system: C. glabrata; assay: Minimum inhibitory concentration, RPMI medium; format: cell-based
How it was run: as §1

[3] = system: C. krusei; assay: Minimum inhibitory concentration, RPMI medium; format: cell-based
How it was run: as §1

[4] = system: A. terreus; assay: Minimum inhibitory concentration, RPMI medium; format: cell-based
How it was run: as §1

[5] = system: A. niger; assay: Minimum inhibitory concentration, RPMI medium; format: cell-based
How it was run: as §1

[6] = system: A. flavus; assay: Minimum inhibitory concentration, RPMI medium; format: cell-based
How it was run: as §1

[7] = system: A. terreus 49; assay: Minimum inhibitory concentration, RPMI medium; format: cell-based
How it was run: as §1

[8] = system: C. tropicalis; assay: Minimum inhibitory concentration, RPMI medium; format: cell-based
How it was run: as §1

[9] = system: C. parapsilosis; assay: Minimum inhibitory concentration, RPMI medium; format: cell-based
How it was run: as §1

[10] = system: A. fumigatus 210; assay: Minimum inhibitory concentration, YAG medium; format: cell-based, Aspergillus fumigatus
How it was run: (§2)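 Broth microdilution in YAG medium (1% glucose, 1% ammonium chloride, 0.5% yeast extract) with spore inocula of 1-2×10^4 cfu/mL and doubling dilutions typically spanning 50-0.05 mg/L. Plates were incubated 24 hrs at 35° C and read by OD 485 nm. MIC is the lowest concentration giving >70% growth inhibition versus drug-free control, in mg/L.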

[11] = system: A. fumigatus 210; assay: Minimum inhibitory concentration, RPMI medium; format: cell-based
Procedure: (§3) Between 1 and 5 mgs of compound were accurately weighed out into a sterile Eppendorf tube. The compound was dissolved in DMSO to give a solution containing 5 mg/mL. Tubes were stored at −20° C. until required.
(§4) On the day of testing thawed solutions were vortex mixed to ensure homogeneity. 30 μL of solution was removed and added to 570 μL of sterile water in a separate sterile Eppendorf. The thoroughly mixed solution was used to prepare a series of doubling dilutions in water, in a deep well plate. Thirteen replicate plates were prepared using a Minitrak by aspirating 20 μL from each well into eleven clear polystyrene 96 well plates.
(§5) Assays were also performed in RPMI medium (Roswell Park Memorial Media 1640). To perform MIC tests in this medium, dilutions of compounds are prepared in microtitre plates as described above. Fungal strains to be tested are grown and harvested in an identical manner to that described above, and each organism suspension was diluted in RPMI medium, typically containing 2% glucose and 0.135 M MOPS buffer (pH 7.0) to 0.5-2×10^4cfu/mL, rather than in YAG medium. 80 μL of an organism suspension was added to each well of the plate containing drug dilutions.
(§6) This produced MIC plates with a drug range 50-0.05 mg/L and organism inocula of 1-2×10^4 cfu/mL. All plates were incubated for 24-48 hrs at 35° C. Growth was assessed by monitoring the optical density at 485 nm for each well. The MIC of a compound is the lowest drug concentration that inhibits growth of an organism by >80% compared with a drug free control. The following organisms were tested: C. albicans, C. parapsilosis, C. tropicalis, C. glabrata, C. krusei, A. niger, A. fumigatus, A. terreus, A. flavus, A. terreus 49, and A. fumigatus 210.

[12] = system: A. fumigatus; assay: Minimum inhibitory concentration, RPMI medium; format: cell-based
Procedure: as §3, §4, §5, §6

[13] = system: A. terreus 49; assay: Minimum inhibitory concentration, YAG medium; format: cell-based, Aspergillus terreus
How it was run: (§7)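 Compound from a 5 mg/mL DMSO stock was further diluted in sterile water, then serially doubled in water and plated with Aspergillus spp. spores. After 24 hrs at 35° C, growth was monitored by optical density at 485 nm; MICs are given in mg/L.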

[14] = system: Aspergillus fumigatus; assay: Minimum inhibitory concentration, YAG medium; format: cell-based
How it was run: as §2

[15] = system: Aspergillus flavus; assay: Minimum inhibitory concentration, YAG medium; format: cell-based
How it was run: as §7

[16] = system: Aspergillus terreus; assay: Minimum inhibitory concentration, YAG medium; format: cell-based
How it was run: as §7

[17] = system: Aspergillus niger; assay: Minimum inhibitory concentration, YAG medium; format: cell-based
How it was run: as §7

Compound | MIC grade, C. ALBICANS, RPMI media [1] | MIC grade, C. GLABRATA, RPMI media [2] | MIC grade, C. KRUSEI, RPMI media [3] | MIC grade, A. TERREUS, RPMI media [4] | MIC grade, A. NIGER, RPMI media [5] | MIC grade, A. FLAVUS, RPMI media [6] | MIC grade, A. TERREUS 49, RPMI media [7] | MIC grade, C. TROPICALIS, RPMI media [8] | MIC grade, C. PARAPSILOSIS, RPMI media [9] | MIC grade, A. FUMIGATUS 210, YAG media [10] | MIC grade, A. FUMIGATUS 210, RPMI media [11] | MIC grade, A. FUMIGATUS, RPMI media [12] | MIC grade, A. TERREUS 49, YAG media [13] | MIC grade, A. FUMIGATUS, YAG media [14] | MIC grade, A. FLAVUS, YAG media [15] | MIC grade, A. TERREUS, YAG media [16] | MIC grade, A. NIGER, YAG media [17]
NC1=NN=C(CCCCOCc2ccccc2CCc2ccccc2)CS1 | 2 (2: 5-20 mg/L) | 1 (1: ≥20 mg/L) | 2 (2: 5-20 mg/L) | 2 (2: 5-20 mg/L) | 1 (1: ≥20 mg/L) | 1 (1: ≥20 mg/L) | 2 (2: 5-20 mg/L) | 2 (2: 5-20 mg/L) | 2 (2: 5-20 mg/L) | 1 (1: ≥5 mg/L) | 1 (1: ≥20 mg/L) | 1 (1: ≥20 mg/L) | 1 (1: ≥5 mg/L) | 1 (1: ≥5 mg/L) | 2 (2: 1-5 mg/L) | 2 (2: 1-5 mg/L) | 1 (1: ≥5 mg/L)
NC1=NN=C(CCCCOCc2cccc(Cl)c2)CS1 | 4 (4: <1 mg/L) | 3 (3: 1-5 mg/L) | 4 (4: <1 mg/L) | 3 (3: 1-5 mg/L) | 3 (3: 1-5 mg/L) | 4 (4: <1 mg/L) | 3 (3: 1-5 mg/L) | 4 (4: <1 mg/L) | 4 (4: <1 mg/L) | 4 (4: <0.2 mg/L) | 2 (2: 5-20 mg/L) | 4 (4: <1 mg/L) | 4 (4: <0.2 mg/L) | 4 (4: <0.2 mg/L) | 4 (4: <0.2 mg/L) | 4 (4: <0.2 mg/L) | 4 (4: <0.2 mg/L)
NC1=NN=C(CCCCOCc2c(F)cccc2Cl)CS1 | 2 (2: 5-20 mg/L) | 2 (2: 5-20 mg/L) | 3 (3: 1-5 mg/L) | 2 (2: 5-20 mg/L) | 2 (2: 5-20 mg/L) | 2 (2: 5-20 mg/L) | 2 (2: 5-20 mg/L) | 2 (2: 5-20 mg/L) | 2 (2: 5-20 mg/L) | 3 (3: 0.2-1 mg/L) | 1 (1: ≥20 mg/L) | 2 (2: 5-20 mg/L) | 3 (3: 0.2-1 mg/L) | 3 (3: 0.2-1 mg/L) | 3 (3: 0.2-1 mg/L) | 3 (3: 0.2-1 mg/L) | 3 (3: 0.2-1 mg/L)
